Test results as given in patent US20160287589A1, “SUBSTITUTED-IMIDAZOPYRIDAZINES” (BAYER PHARMA AKTIENGESELLSCHAFT, priority 2013, published 2016).

Target: T1, MKNK1 (Homo sapiens, UniProt Q9BUB5, T385D)
T1 construct: GST (N); purchased Carna Biosciences 02-145; host or cells: insect cells (baculovirus expression system)
Experiment: MKNK1 kinase high ATP assay (TR-FRET-based)
Type: biochemical
Settings: Table 2a; 2 mM ATP, 15 min preincubation
Experimental: MKNK1 Kinase High ATP Assay
MKNK1-inhibitory activity at high ATP of compounds of the present invention after their preincubation with MKNK1 was quantified employing the TR-FRET-based MKNK1 high ATP assay as described in the following paragraphs.
A recombinant fusion protein of Glutathione-S-Transferase (GST, N-terminally) and human full-length MKNK1 (amino acids 1-424 and T344D of accession number BAA 19885.1), expressed in insect cells using baculovirus expression system and purified via glutathione sepharose affinity chromatography, was purchased from Carna Biosciences (product no 02-145) and used as enzyme. As substrate for the kinase reaction the biotinylated peptide biotin-Ahx-IKKRKLTRRKSLKG (C-terminus in amide form) was used, which can be purchased e.g. from the company Biosyntan (Berlin-Buch, Germany).
For the assay 50 nL of a 100 fold concentrated solution of the test compound in DMSO was pipetted into a black low volume 384 well microtiter plate (Greiner Bio-One, Frickenhausen, Germany), 2 μL of a solution of MKNK1 in aqueous assay buffer [50 mM HEPES pH 7.5, 5 mM magnesium chloride, 1.0 mM dithiothreitol, 0.005% (v/v) Nonidet-P40 (Sigma)] was added and the mixture was incubated for 15 min at 22° C. to allow pre-binding of the test compounds to the enzyme before the start of the kinase reaction. Then the kinase reaction was started by the addition of 3 μL of a solution of adenosine-tri-phosphate (ATP, 3.3 mM=>final conc. in the 5 μL assay volume is 2 mM) and substrate (0.1 μM=>final conc. in the 5 μL assay volume is 0.06 μM) in assay buffer and the resulting mixture was incubated for a reaction time of 30 min at 22° C. The concentration of MKNK1 was adjusted depending of the activity of the enzyme lot and was chosen appropriate to have the assay in the linear range, typical concentrations were in the range of 0.003 μg/mL. The reaction was stopped by the addition of 5 μL of a solution of TR-FRET detection reagents (5 nM streptavidine-XL665 [Cisbio Bioassays, Codolet, France] and 1 nM anti-ribosomal protein S6 (pSer236)-antibody from Invitrogen [#44921G] and 1 nM LANCE EU-W1024 labeled ProteinG [Perkin-Elmer, product no. AD0071]) in an aqueous EDTA-solution (100 mM EDTA, 0.1% (w/v) bovine serum albumin in 50 mM HEPES pH 7.5).
The resulting mixture was incubated for 1 h at 22° C. to allow the formation of complex between the phosphorylated biotinylated peptide and the detection reagents. Subsequently the amount of phosphorylated substrate was evaluated by measurement of the resonance energy transfer from the Eu-chelate to the streptavidine-XL. Therefore, the fluorescence emissions at 620 nm and 665 nm after excitation at 350 nm were measured in a TR-FRET reader, e.g. a Rubystar (BMG Labtechnologies, Offenburg, Germany) or a Viewlux (Perkin-Elmer). The ratio of the emissions at 665 nm and at […] was taken as the measure for the amount of phosphorylated substrate. The data were normalised (enzyme reaction without inhibitor=0% inhibition, all other assay components but no enzyme=100% inhibition).

T1 sequence (Q9BUB5 1-424 isoform Q9BUB5-2 T344D): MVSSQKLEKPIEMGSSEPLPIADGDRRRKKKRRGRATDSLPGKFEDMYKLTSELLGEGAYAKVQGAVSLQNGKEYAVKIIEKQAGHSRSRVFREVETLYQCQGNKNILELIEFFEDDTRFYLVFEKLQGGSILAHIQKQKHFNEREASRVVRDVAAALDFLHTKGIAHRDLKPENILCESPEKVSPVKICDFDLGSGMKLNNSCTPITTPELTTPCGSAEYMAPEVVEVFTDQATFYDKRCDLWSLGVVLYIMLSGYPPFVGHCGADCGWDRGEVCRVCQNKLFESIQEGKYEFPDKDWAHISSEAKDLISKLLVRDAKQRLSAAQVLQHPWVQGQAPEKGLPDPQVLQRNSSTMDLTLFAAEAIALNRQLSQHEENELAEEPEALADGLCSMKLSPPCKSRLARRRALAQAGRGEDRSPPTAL

`CC(C)(C)C(=O)N1CCC[C@H]1CCOc1ccc2ncc(-c3cc4ccccc4o3)n2n1` [Example I-3, 1-[(2S)-2-(2-{[3-(1-Benzofuran-2-yl)imidazo[1,2-b]pyridazin-6-yl]oxy}ethyl)-pyrrolidin-1-yl]-2,2-dimethylpropan-1-one] and `COc1cccc2oc(-c3cnc4ccc(OC[C@H]5CN(C(=O)C6CC6)CCO5)nn34)cc12` [Example I-41, Cyclopropyl[(2R)-2-({[3-(4-methoxy-1-benzofuran-2-yl)imidazo[1,2-b]pyridazin-6-yl]oxy}methyl)morpholin-4-yl]methanone] are within 1.5-fold of each other in IC50: 4.8 nM for the first, 7 nM for the second.

Same assay, conditions: Table 2b; 2 mM ATP, 15 min preincubation

`COc1ccc2ncc(-c3cc4c(N5CCN[C@@H](C)C5)cccc4o3)n2n1` [II-40, 6-methoxy-3-{4-[(3S)-3-methylpiperazin-1-yl]-1-benzofuran-2-yl}imidazo[1,2-b]pyridazine] and `C[C@H]1CN(c2cccc3oc(-c4cnc5ccc(OCC(F)(F)F)nn45)cc23)CCN1` [II-41, 3-{4-[(3S)-3-methylpiperazin-1-yl]-1-benzofuran-2-yl}-6-(2,2,2-trifluoroethoxy)im-idazo[1,2-b]pyridazine] are within 1.5-fold of each other in IC50: 4.4 nM for the first, 5.5 nM for the second.

`C[C@H]1CN(c2cccc3oc(-c4cnc5ccc(OC[C@@H]6CCC(=O)N6)nn45)cc23)CCN1` [II-42, (5S)-5-{[(3-{4-[(3S)-3-methylpiperazin-1-yl]-1-benzofuran-2-yl}imidazo[1,2-b]pyridazin-6-yl)oxy]methyl}pyrrolidin-2-one] and `C[C@H]1CN(c2cccc3oc(-c4cnc5ccc(OCCCS(C)(=O)=O)nn45)cc23)CCN1` [II-52, 3-{4-[(3S)-3-methylpiperazin-1-yl]-1-benzofuran-2-yl}-6-[3-(methylsulfonyl)pro-poxy]imidazo[1,2-b]pyri-dazine] are within 1.5-fold of each other in IC50: 5.8 nM for the first, 7.1 nM for the second.

Molecule `COc1ccc2ncc(-c3cc4c(N5CCNC(C)(C)C5)cccc4o3)n2n1` [II-60, 3-[4-(3,3-dimethylpiperazin-1-yl)-1-benzofuran-2-yl]-6-methoxy-imidazo[1,2-b]pyridazine] has an IC50 of 0.3 nM.

Same assay, conditions: Table 2c; 2 mM ATP, 15 min preincubation

`C[C@@H](N)COc1ccc2ncc(-c3cc4c(N5CCOC[C@@H]5C)nccc4o3)n2n1` [III-5, (2R)-1-[(3-{4-[(3S)-3-Methylmorpholin-4-yl]furo[3,2-c]pyridin-2-yl}imidazo-[1,2-b]pyridazin-6-yl)oxy]propan-2-amine] and `C[C@H](N)COc1ccc2ncc(-c3cc4c(N5CCOC[C@@H]5C)nccc4o3)n2n1` [III-28, (2S)-1-[(3-{4-[(3S)-3-Methylmorpholin-4-yl]furo[3,2-c]pyridin-2-yl}imidazo-[1,2-b]pyridazin-6-yl)oxy]propan-2-amine] are within 1.5-fold of each other in IC50: 10.1 nM for the first, 9.4 nM for the second.

First: C[C@@H](N)COc1ccc2ncc(-c3cc4c(N5CCO[C@@H](C)C5)nccc4o3)n2n1 [III-6, (2R)-1-[(3-{4-[(2S)-2-Methylmorpholin-4-yl]furo[3,2-c]pyridin-2-yl}imidazo-[1,2-b]pyridazin-6-yl)oxy]propan-2-amine]
Second: C[C@H](N)COc1ccc2ncc(-c3cc4c(N5CCO[C@@H](C)C5)nccc4o3)n2n1 [III-29, (2S)-1-[(3-{4-[(2S)-2-Methylmorpholin-4-yl]furo[3,2-c]pyridin-2-yl}imidazo-[1,2-b]pyridazin-6-yl)oxy]propan-2-amine]
The IC50 of the first is 1.8-fold higher: 8.8 nM for the first, 4.8 nM for the second.

First: C[C@H]1COCCN1c1nccc2oc(-c3cnc4ccc(OCCCS(C)(=O)=O)nn34)cc12 [III-59, 3-{4-[(3S)-3-Methylmorpholin-4-yl]furo[3,2-c]pyridin-2-yl}-6-[3-(methyl-sulfonyl)propoxy]imidazo[1,2-b]pyridazine]
Second: C[C@H]1CN(c2nccc3oc(-c4cnc5ccc(OCCCS(C)(=O)=O)nn45)cc23)CCO1 [III-60, 3-{4-[(2S)-2-Methylmorpholin-4-yl]furo[3,2-c]pyridin-2-yl}-6-[3-(methyl-sulfonyl)propoxy]imidazo[1,2-b]pyridazine]
The IC50 of the first is 1.8-fold higher: 4.9 nM for the first, 2.8 nM for the second. The second is the more potent here.

`C[C@@H]1COCCN1c1nccc2oc(-c3cnc4ccc(OC[C@H]5CCC(=O)N5)nn34)cc12` [III-79, (5R)-5-{[(3-{4-[(3R)-3-Methylmorpholin-4-yl]furo[3,2-c]pyridin-2-yl}imidazo[1,2-b]pyridazin-6-yl)oxy]methyl}pyrrolidin-2-one] and `C[C@H]1COCCN1c1nccc2oc(-c3cnc4ccc(OC[C@H]5CCC(=O)N5)nn34)cc12` [III-84, (5R)-5-{[(3-{4-[(3S)-3-Methylmorpholin-4-yl]furo[3,2-c]pyridin-2-yl}imidazo[1,2-b]pyridazin-6-yl)oxy]methyl}pyrrolidin-2-one] are within 1.5-fold of each other in IC50: 0.7 nM for the first, 0.5 nM for the second.

`C[C@H]1COCCN1c1nccc2oc(-c3cnc4ccc(OC[C@@H]5CCC(=O)N5)nn34)cc12` [III-87, (5S)-5-{[(3-{4-[(3S)-3-Methylmorpholin-4-yl]furo[3,2-c]pyridin-2-yl}imidazo-[1,2-b]pyridazin-6-yl)oxy]methyl}pyrrolidin-2-one] and `C[C@H]1CN(c2nccc3oc(-c4cnc5ccc(OC[C@@H]6CCC(=O)N6)nn45)cc23)CCO1` [III-88, (5S)-5-{[(3-{4-[(2S)-2-Methylmorpholin-4-yl]furo[3,2-c]pyridin-2-yl}imidazo-[1,2-b]pyridazin-6-yl)oxy]methyl}pyrrolidin-2-one] are within 1.5-fold of each other in IC50: 3.7 nM for the first, 4.2 nM for the second.

First: COc1ccc2ncc(-c3cc4c(N5CCOC[C@H]5C)nccc4o3)n2n1 [III-92, 6-Methoxy-3-{4-[(3R)-3-methylmorpholin-4-yl]furo[3,2-c]pyridin-2-yl}imidazo[1,2-b]pyridazine]
Second: COc1ccc2ncc(-c3cc4c(N5CCOC[C@@H]5C)nccc4o3)n2n1 [III-93, 6-Methoxy-3-{4-[(3S)-3-methylmorpholin-4-yl]furo[3,2-c]pyridin-2-yl}imidazo[1,2-b]pyridazine]
The IC50 of the first is 1.7-fold lower: 3.2 nM for the first, 5.6 nM for the second.

Compared with `COc1ccc2ncc(-c3cc4c(N5CCO[C@@H](C)C5)nccc4o3)n2n1` [III-94, 6-Methoxy-3-{4-[(2S)-2-methylmorpholin-4-yl]furo[3,2-c]pyridin-2-yl}imidazo[1,2-b]pyridazine], `C[C@H]1CN(c2nccc3oc(-c4cnc5ccc(O[C@H]6C[C@H](N)C6)nn45)cc23)CCO1` [III-110, trans-3-[(3-{4-[(2S)-2-Methylmorpholin-4-yl]furo[3,2-c]pyridin-2-yl}imidazo[1,2-b]pyridazin-6-yl)oxy]cyclobutanamine] is 2.6-fold higher in IC50: 4 nM for the first, 10.4 nM for the second.

`C[C@H]1COCCN1c1nccc2oc(-c3cnc4ccc(O[C@H]5C[C@H](N)C5)nn34)cc12` [III-109, trans-3-[(3-{4-[(3S)-3-Methylmorpholin-4-yl]furo[3,2-c]pyridin-2-yl}imidazo[1,2-b]pyridazin-6-yl)oxy]cyclobutanamine] and `C[C@@H]1CN(c2nccc3oc(-c4cnc5ccc(OCC(F)(F)F)nn45)cc23)CCN1` [III-127, 3-{4-[(3R)-3-methylpiperazin-1-yl]furo[3,2-c]pyridin-2-yl}-6-(2,2,2-trifluoroethoxy)imidazo [1,2-b]pyridazine] are within 1.5-fold of each other in IC50: 5.2 nM for the first, 4.2 nM for the second.

Same assay, conditions: Table 2d; 2 mM ATP, 15 min preincubation

With `O=C1CC[C@H](COc2ccc3ncc(-c4cc5c(OCC6CC6)nccc5o4)n3n2)N1` [IV-12, (5R)-5-[({3-[4-(Cyclopropylmethoxy)furo[3,2-c]pyridin-2-yl]imidazo[1,2-b]-pyridazin-6-yl}oxy)methyl]pyrrolidin-2-one] the IC50 was 7 nM.
